# Laboratory results published in patent US20170189445A1, “XENON ASSOCIATED WITH AN NMDA RECEPTOR ANTAGONIST FOR CONTROLLING TUMOR PROLIFERATION IN THE CENTRAL NERVOUS SYSTEM” (L'Air Liquide, Société Anonyme pour I'Etude et …, priority 2014, published 2017).
# Assays:
# [1] = system: glial cells of astrocyte type and/or precursors thereof in the presence of neuronal cells; test: Cell proliferation by tritiated thymidine incorporation in neuron-glia mixed (mesencephalon) cultures; assay type: cell-based, rat; design: key to Inhibition of proliferation: an absence of response is represented by a “−” sign, synonymous with non-efficacy with respect to cell proliferation; +: a favorable response, synonymous with inhibition of the proliferation of glial cells of astrocyte type; ++: a favorable response, synonymous with inhibition of the proliferation of glial cells of astrocyte type; +++: a favorable response, synonymous with inhibition of the proliferation of glial cells of astrocyte type; ++++=absence of proliferation
# Experimental: Cultures are prepared from mesencephalon of rat embryos taken from female Wistar rats, on day 15.5 of gestation. The use of the mesencephalon cultures comprises obtaining a homogeneous cell suspension by mechanical dissociation, i.e. non-enzymatic dissociation, of the embryonic tissue, using Leibovitz L15 medium (Sigma Aldrich). Aliquots of this suspension are added to Nunc 48-well multiwell plates, which have been precoated with a thin layer of polyethyleneimine (1 mg/ml, borate buffer, pH 8.3) so as to enable adhesion of the neuronal cells (cf. Toulorge et al., Faseb J, 2011). The seeding density is between approximately 80 000 and 100 000 cells/culture well. The mesencephalon cultures are maintained in MEM culture medium, containing 1 g/l of glucose, 2 mM of L-glutamine, 1 mM of sodium pyruvate, non-essential amino acids and a penicillin/streptomycin cocktail. During the first week of culture, this medium also contains 10% of fetal calf serum (FCS, Biowest) and 10% of horse serum (HS, Sigma Aldrich), but from the second week, the concentrations of the two sera are reduced (Gao et al., J Neurosci, 2002). Up to the time when the effects of the gases of interest are evaluated, the cultures are placed in a conventional enclosure thermostatically controlled at 37° C., in which the CO2 is maintained at 5% by volume and wherein the atmosphere is saturated with water. The glial proliferation process occurs as soon as the cells are placed in culture. It is analyzed during the second week in vitro when the serum supplementation is reduced to 2% or in some cases to 0.1%. After reduction of the FCS and HS concentrations on D7, the NMDA receptor blocker, memantine, is added to the cultures before placing them under a controlled gaseous atmosphere. Once the pharmacological treatments have been carried out, the multiwell plates containing the cells in culture and the plate used for humidifying the internal compartment of the chamber are placed on a metal base which receives the Plexiglas incubation chamber. The two parts (base and Plexiglas chamber) are butt-joined together by screwing. A gas mixture of interest comprising (% by volume): 20% of O2, 5% of CO2 and 75% of gas tested is then injected into the incubation chamber, with open inlet and outlet valves, while at the same time controlling the output flow rate by means of a flow meter. The gases tested are nitrogen and xenon. The reference output flow rate, set for air at 10 liters/min, is corrected according to the density of the mixture used. When the CO2 measurement reaches 5% at the outlet, the injection of the gas mixture is stopped and the chamber is made totally airtight by closing the inlet and outlet valves. The exposure chamber is then placed in an enclosure at 37° C. for the 7 days of the experimental protocol. On D14, after the […] been broken by opening the inlet and outlet valves and unscrewing the incubation chamber from its base, the cultures are subjected to the tritiated-thymidine proliferation test according to the protocol described in example 1, using as a basis the technique described by Rousseau and colleagues (Mol. Pharmacol., 2013). […] Some experiments were also carried out by reducing the concentrations of the 2 types of serum to 0.1%, while maintaining the cells under a nitrogen-enriched or xenon-enriched atmosphere. The cultures are then recovered for a cell proliferation measurement using tritiated thymidine. […]
# [2] = system: glial cells of astrocyte type and/or precursors thereof; test: Cell proliferation by tritiated thymidine accumulation in astrocyte-enriched cultures (FCS mitogens); assay type: cell-based, rat; design: key to Reduction in proliferation: an absence of response is represented by a “−” sign, synonymous with non-efficacy with respect to cell proliferation; +: a favorable response, synonymous with inhibition of the proliferation of glial cells of astrocyte type; ++: a favorable response, synonymous with inhibition of the proliferation of glial cells of astrocyte type; +++: a favorable response, synonymous with inhibition of the proliferation of glial cells of astrocyte type; ++++=absence of proliferation
# Experimental: Cultures are prepared from total brain of embryos, taken from gestating Wistar female rats on day 15.5 of gestation. The method for producing the cultures enriched with astrocytes (cells immunopositive for glial fibrillary acidic protein or GFAP) comprises obtaining a homogeneous cell suspension of the entire embryonic anterior brain by mechanical dissociation, i.e. non-enzymatic dissociation, using Leibovitz L15 medium (Sigma Aldrich). […] The medium used is Minimum Essential Medium (MEM), containing 10% of fetal calf serum (FCS, Biowest) and 10% of horse serum (HS, Sigma Aldrich), 1 g/l of glucose, 2 mM of L-glutamine, 1 mM of sodium pyruvate, non-essential amino acids, and a penicillin/streptomycin cocktail. When confluence is reached (i.e. after 7-10 days of culture), the adherent cells (>90% of astrocytes) are placed in PBS, then detached by tapping the flasks. […] The astrocytes are then cultured in 48-well multiwell plates (Nunc). Approximately 30 000 cells are applied per culture well. The cells are placed in the presence of the same medium as previously, but with a serum supplementation, reduced to 2%. No change of culture medium is carried out throughout the culture period. The proliferation is triggered and maintained by the presence of FCS in the culture medium. The NMDA receptor blocker, memantine (RD Systems), is added to the cultures just before exposure to the xenon. Dibutyryl cyclic AMP (dbcAMP), a lipophilic form of cAMP used as a reference anti-proliferative molecule (Mourlevat et al., Mol Pharmacol, 2003), is added at the same time as the memantine. Once the pharmacological treatments have been carried out, the multiwell dish plates containing the cells in culture and the plate used to humidify the internal compartment of the chamber are placed on a metal base which receives the Plexiglas incubation chamber. The two parts (base and Plexiglas chamber) are butt-joined together by screwing. A gas mixture of interest comprising (% by volume): 20% of O2, 5% of CO2 and 75% of the gas tested is then injected into the incubation chamber, with open inlet and outlet valves, while at the same time controlling the output flow rate by means of a flow meter. The gases tested are nitrogen and xenon. The reference output flow rate, set for air at 10 liters/min, is corrected according to the density of the mixture used. When the CO2 measurement reaches 5% at the outlet, the injection of the gas mixture is stopped and the chamber is made totally airtight by closing the inlet and outlet valves. The exposure chamber is then placed in an enclosure at 37° C. throughout the experimental protocol. After the […] been broken by opening the inlet and outlet valves and unscrewing the chamber from its base, the cultures are placed in the presence of PBS containing 5 mM of glucose and incubated for 2 h with tritiated thymidine (Perkin, 70-90 Ci/mmol; 0.5 μCi/well) in order to analyze the cell proliferation according to a method previously described by Rousseau and colleagues (Mol Pharmacol, 2013). […] These cultures were maintained, as soon as they were placed in culture and up to D3 in vitro, in an atmosphere containing 75% of nitrogen (N2 75) or 75% of xenon (Xe 75), in the presence or absence of memantine (MEM), […] analog of cAMP, dibutyryl-cAMP, used as reference anti-proliferative molecule. At the end of the treatments, the cultures are recovered for a cell proliferation measurement, using tritiated thymidine incorporation as evaluation index. The results are expressed in % (±SEM, n=6) of the mean values of the cultures maintained under 75% of nitrogen (control condition).
structure (smiles),measurement,setting,value
"CC12CC3CC(C)(C1)CC(N)(C3)C2 [Memantine, memantine]",Inhibition of proliferation,"[1]; 10 μM, 75% N2, sera at 2%, D7-D14",−
same,impact on the proliferation,[1]; memantine applied under nitrogen,no impact on the proliferation
same,anti-proliferative effect,"[2]; 30 pM (so in the source), nitrogen-enriched atmosphere",−39.3%
same,anti-proliferative effect,"[2]; 30 pM (so in the source), xenon-enriched atmosphere",−75.2%
same,Reduction in proliferation,"[2]; 1 μM, 75% N2, D0-D3",−
same,Reduction in proliferation,"[2]; 1 μM, 75% Xe, D0-D3",−
same,Reduction in proliferation,"[2]; 3 μM, 75% N2, D0-D3",−
same,Reduction in proliferation,"[2]; 3 μM, 75% Xe, D0-D3",−
same,Reduction in proliferation,"[2]; 10 μM, 75% N2, D0-D3",−
same,Reduction in proliferation,"[2]; 10 μM, 75% Xe, D0-D3",++
same,anti-proliferative effect,"[2]; 10 μM, xenon-enriched atmosphere, vs cultures under 75% nitrogen",−42.5%
same,Reduction in proliferation,"[2]; 30 μM, 75% N2, D0-D3",++
same,Reduction in proliferation,"[2]; 30 μM, 75% Xe, D0-D3",+++
same,anti-proliferative effect,"[2]; nitrogen-enriched atmosphere, up to 10 μM",no anti-proliferative effect
"[Xe] [Xe, xenon]",Inhibition of proliferation,"[1]; 75% Xe, sera at 0.1%, D7-D14",+++
same,Inhibition of proliferation,"[1]; 75% Xe, sera at 2%, D7-D14 (7 days)",−
same,impact on the proliferation,"[1]; xenon-enriched atmosphere, no memantine",no impact on the proliferation
same,Reduction in proliferation,"[2]; 75% Xe (20% O2 + 5% CO2), no drug, D0-D3 (3 days)",−
same,anti-proliferative effect,"[2]; xenon replaces nitrogen (75 vol %), no drug",no significant anti-proliferative effect
"CCCC(=O)Nc1ncnc2c1ncn2[C@@H]1O[C@@H]2COP(=O)(O)O[C@H]2[C@H]1OC(=O)CCC [dbcAMP, Dibutyryl cyclic AMP]",Reduction in proliferation,"[2]; 1 mM, 75% N2, D0-D3",++
same,Reduction in proliferation,"[2]; 1 mM, 75% Xe, D0-D3",++
same,proliferation in the presence of serum mitogens,[2]; atmosphere containing 75 vol % of nitrogen,significantly reduced
